Data taken from PubChem BioAssay (NCI).
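Tested at 5 concentrations; 48 h exposure; 96-well plates; endpoints linearly interpolated, else capped at highest concentration. Here, GI50 denotes the concentration required for 50% inhibition of growth. TGI denotes the concentration required for complete inhibition of growth.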

What was measured:
Experiment in all cases: growth of human tumour cells (NCI), 48 h
[1] = tested on: A549 NSCLC
[2] = tested on: HCT-15 colon
[3] = tested on: MALME-3M melanoma
[4] = tested on: SR leukemia
[5] = tested on: RPMI-8226 leukemia
[6] = tested on: OVCAR-3 ovarian
[7] = tested on: SF-539 CNS
[8] = tested on: 786-0 renal
[9] = tested on: T-47D breast
[10] = tested on: PC-3 prostate
[11] = tested on: MCF7 breast
[12] = tested on: NCI-H226 lung
[13] = tested on: OVCAR-4 ovarian
[14] = tested on: U251 CNS
[15] = tested on: DU-145 prostate
[16] = tested on: LOX IMVI melanoma
[17] = tested on: NCI-H23 lung
[18] = tested on: HCC-2998 colon
[19] = tested on: UO-31 renal
[20] = tested on: K-562 leukemia
[21] = tested on: SK-MEL-28 melanoma
[22] = tested on: MDA-MB-435
[23] = tested on: NCI/ADR-RES ovarian
[24] = tested on: ACHN renal
[25] = tested on: IGROV1 ovarian
[26] = tested on: HS 578T breast
[27] = tested on: HOP-62 NSCLC
[28] = tested on: CAKI-1 renal
[29] = tested on: MDA-MB-231 breast
[30] = tested on: COLO 205 colon
[31] = tested on: SW-620 colon
[32] = tested on: M14 melanoma
[33] = tested on: NCI-H460 lung
[34] = tested on: CCRF-CEM leukemia
[35] = tested on: OVCAR-8 ovarian
[36] = tested on: SF-295 CNS
[37] = tested on: RXF 393 renal
[38] = tested on: HT29 colon
[39] = tested on: KM12 colon
[40] = tested on: TK-10 renal
[41] = tested on: BT-549 breast
[42] = tested on: UACC-62 melanoma
[43] = tested on: HL-60(TB) leukemia
[44] = tested on: SNB-19 CNS
[45] = tested on: MOLT-4 leukemia
[46] = tested on: SK-MEL-5 melanoma
[47] = tested on: SN12C renal
[48] = tested on: OVCAR-5 ovarian
[49] = tested on: SF-268 CNS
[50] = tested on: HCT-116 colon
[51] = tested on: UACC-257 melanoma
[52] = tested on: SK-OV-3 ovarian
[53] = tested on: EKVX NSCLC
[54] = tested on: SNB-75 CNS
[55] = tested on: NCI-H522 lung
[56] = tested on: SK-MEL-2 melanoma
[57] = tested on: A498 renal
[58] = tested on: HOP-92 NSCLC

## COC1CCN(C(=O)c2cc(Cc3n[nH]c(=O)c4ccccc34)ccc2F)CC1
[1]
  GI50: 58.9 µM
  TGI: > 100 µM
[2]
  GI50: > 100 µM
  TGI: > 100 µM
[3]
  GI50: > 100 µM
  TGI: > 100 µM
[4]
  GI50: 21.7 µM
  TGI: > 100 µM
[5]
  GI50: 60.9 µM
  TGI: > 100 µM
[6]
  GI50: 74.1 µM
  TGI: > 100 µM
[7]
  GI50: > 100 µM
  TGI: > 100 µM
[8]
  GI50: > 100 µM
  TGI: > 100 µM
[9]
  GI50: 53.6 µM
  TGI: > 100 µM
[10]
  GI50: > 87.6 µM
  TGI: > 100 µM
[11]
  GI50: 60.8 µM
  TGI: > 100 µM
[12]
  GI50: 89.2 µM
  TGI: > 100 µM
[13]
  GI50: 36.7 µM
  TGI: > 100 µM
[14]
  GI50: > 55.3 µM
  TGI: > 100 µM
[15]
  GI50: > 85.7 µM
  TGI: > 100 µM
[16]
  GI50: 58.5 µM
  TGI: > 100 µM
[17]
  GI50: 51.7 µM
  TGI: > 100 µM
[18]
  GI50: > 100 µM
  TGI: > 100 µM
[19]
  GI50: 84.5 µM
  TGI: > 100 µM
[20]
  GI50: > 89.1 µM
  TGI: > 100 µM
[21]
  GI50: > 100 µM
  TGI: > 100 µM
[22]
  GI50: > 100 µM
  TGI: > 100 µM
[23]
  GI50: > 76.8 µM
  TGI: > 100 µM
[24]
  GI50: > 100 µM
  TGI: > 100 µM
[25]
  GI50: > 60.4 µM
  TGI: > 100 µM
[26]
  GI50: > 64.5 µM
  TGI: > 100 µM
[27]
  GI50: 33.4 µM
  TGI: > 100 µM
[28]
  GI50: 32.3 µM
  TGI: > 100 µM
[29]
  GI50: > 100 µM
  TGI: > 100 µM
[30]
  GI50: > 100 µM
  TGI: > 100 µM
[31]
  GI50: > 100 µM
  TGI: > 100 µM
[32]
  GI50: > 90.9 µM
  TGI: > 100 µM
[33]
  GI50: 25.6 µM
  TGI: > 100 µM
[34]
  GI50: 43.9 µM
  TGI: > 100 µM
[35]
  GI50: > 73.2 µM
  TGI: > 100 µM
[36]
  GI50: 24.2 µM
  TGI: > 100 µM
[37]
  GI50: 0.926 µM
  TGI: 45.2 µM
[38]
  GI50: > 100 µM
  TGI: > 100 µM
[39]
  GI50: > 100 µM
  TGI: > 100 µM
[40]
  GI50: > 100 µM
  TGI: > 100 µM
[41]
  GI50: 28.8 µM
  TGI: > 100 µM
[42]
  GI50: 40 µM
  TGI: > 100 µM
[43]
  GI50: > 85.3 µM
  TGI: > 100 µM
[44]
  GI50: 57.6 µM
  TGI: > 100 µM
[45]
  GI50: 39.3 µM
  TGI: > 100 µM
[46]
  GI50: 32 µM
  TGI: > 100 µM
[47]
  GI50: 67.5 µM
  TGI: > 100 µM
[48]
  GI50: > 100 µM
  TGI: > 100 µM
[49]
  GI50: 58.3 µM
  TGI: > 100 µM
[50]
  GI50: > 100 µM
  TGI: > 100 µM
[51]
  GI50: > 83.2 µM
  TGI: > 100 µM
[52]
  GI50: > 100 µM
  TGI: > 100 µM
[53]
  GI50: > 100 µM
  TGI: > 100 µM
[54]
  GI50: 9.12 µM
  TGI: > 100 µM
[55]
  GI50: 33.5 µM
  TGI: > 100 µM
[56]
  GI50: > 47.1 µM
  TGI: > 100 µM
[57]
  GI50: > 41.2 µM
  TGI: > 100 µM
[58]
  GI50: 41.5 µM
  TGI: > 100 µM
